Marks after values point to notes of the source that are not given here.
Legend:
Pdr5p ATPase = molecular target: T1, Pdr5p ATPase (Saccharomyces cerevisiae, UniProt P33302); test: Oligomycin sensitive ATPase activity of AD124567 plasma membranes; format: biochemical, S. cerevisiae
T1 construct: plasma membranes from the AD124567 yeast strain overexpressing Pdr5p; endogenous in cells; host or cells: S. cerevisiae AD124567 (pdr1-3, PDR5 intact), plasma membrane fraction
Description: (A) Inhibition profiles of oligomycin-sensitive Pdr5p ATPase activity by the purified peptides D-NH2-asparagine-tryptophan-tryptophan-lysine-valine-arginine-arginine-arginine-CONH2 (KN0) and its singly substituted Mtr-derivative KN20. (B) Inhibition profile with KN20 on the oligomycin-sensitive Cdr1p ATPase activity of plasma membranes from AD1002 minus the oligomycin-sensitive ATPase activity of plasma membranes from the isogenic AD1-8u^− strain.
Yeast were grown in YEPD, pH 5.5 at 30° C. until they reached late-exponential phase of growth (OD600 nm=7), washed twice in ice-cold distilled water, and incubated on ice for 30 min to minimize glucose-stimulated Pma1p activity. Cells were resuspended in homogenising medium (50 mM Tris pH 7.5, 2 mM EDTA and 1 mM phenylmethylsulfonyl fluoride) and disrupted using a Braun Homogeniser. Cell debris and unbroken cells were removed by centrifuging at 2,000×g at 4° C. for 10 min. A crude membrane fraction was isolated from the cell-free supernatant by centrifuging at 30,000×g at 4° C. for 45 min. Plasma membranes were prepared by centrifugation of the supernatant obtained after selective precipitation of mitochondria at pH 5.2 as described previously (Goffeau, A. and Dufour, J. P., 1988). […] Protein was determined using a micro-Bradford (Bio-Rad Laboratories, Hercules, Calif. [Bradford, M. M., 1976]) assay with gamma-globulin as standard. Nucleotide triphosphatase activity was measured by incubating the plasma membrane fractions (10 μg) at 30° C. in a final volume of 120 μl containing 6 mM NTP, 7 mM MgSO4 in 59 mM MES-Tris buffer pH 6.0-8.0. […] Other ATPase inhibitors (20 μM oligomycin, 20 μM aurovertin B or 100 μM vanadate were added to the reaction where indicated. After 30 min the reaction was stopped by adding 130 μl of a solution containing 1% (w/v) SDS, 0.6 M H2SO4, 1.2% (w/v) ammonium molybdate and 1.6% (w/v) ascorbic acid. Inorganic phosphate released from NTPs was measured at 750 nm after 10 min incubation at room temperature.

C. albicans FR2 (Ben^Rp) = test: Checkerboard chemosensitisation to fluconazole; format: cell-based
Description: (§1) Checkerboard drug susceptibility assays were used to measure the chemosensitisation of cells to fluconazole by test compounds such as Pdr5p inhibitors. Fluconazole concentration in the CSM-URA medium was varied in one dimension (between 0 and 80 μg/ml) and the concentration of the test compound was varied in the second dimension (between 0 and 40 μM). Cell inocula, growth conditions and the optical determination of growth were identical to standard liquid MIC determinations. The assays were conducted in 6 by 6 well arrays centred in a 96 well microtitre plate using buffered CSM-URA medium at pH 7.0, with fluconazole and/or peptide included in each well at the indicated concentration.

C. dubliniensis CD36 = test: Checkerboard chemosensitisation to fluconazole; format: cell-based
Description: as §1

C. glabrata CBS138 = test: Checkerboard chemosensitisation to fluconazole; format: cell-based
Description: as §1

C. krusei B2399 = test: Checkerboard chemosensitisation to fluconazole; format: cell-based
Description: as §1

C. tropicalis IFO0618 = test: Checkerboard chemosensitisation to fluconazole; format: cell-based
Description: as §1

[1] = test system: S. cerevisiae 1B (CgCdr1p); test: Checkerboard chemosensitisation to fluconazole; format: cell-based
Description: as §1

[2] = test system: S. cerevisiae 27A (CaCdr2p); test: Checkerboard chemosensitisation to fluconazole; format: cell-based
Description: as §1

[3] = test system: S. cerevisiae 4 (CgPdh1p); test: Checkerboard chemosensitisation to fluconazole; format: cell-based
Description: as §1

[4] = test system: S. cerevisiae AD12345678u-; test: Checkerboard chemosensitisation to fluconazole; format: cell-based
Description: as §1

[5] = test system: S. cerevisiae AD124567 (Pdr5p); test: Checkerboard chemosensitisation to fluconazole; format: cell-based
Description: (A) Checkerboard drug susceptibility assay of AD124567 in the presence of the indicated concentrations of fluconazole and KN20. (B) Disk drug susceptibility assay of AD124567. This assay was conducted, as described in Materials and methods for example 4, in the absence or presence of fluconazole (120 μg/ml), and in the presence of (1) KN0 (47 nanomole), (2) KN20 (47 nanomole) or (0) control amounts of DMSO applied to disks
as §1

C. albicans ATCC10261 = test: Checkerboard chemosensitisation to fluconazole; format: cell-based
Description: (§2) (A) Checkerboard drug susceptibility assay of AD1002. This assay was conducted as described in Materials and methods in the presence of the indicated concentrations of fluconazole and KN20. (B) Disk drug susceptibility assay of AD1002. This assay was conducted, as described in Materials and methods for Example 4, in the absence or presence of 5 μg/ml fluconazole, with (1) KN0 (12 nanomole), (2) KN20 (12 nanomole) or (0) control amounts of DMSO applied to the disks. (C) Checkerboard drug susceptibility assay of ATCC 10261. This assay was conducted, as described in Material and methods for Example 4, in the presence of the indicated concentrations of fluconazole and KN20. D indicates cell death as measured by a failure to recover any colony forming units when samples from microtitre plate wells were cultured on solid YPD medium.
as §1

[6] = test system: S. cerevisiae AD1002 (CaCdr1p); test: Checkerboard chemosensitisation to fluconazole; format: cell-based
Description: as §2, §1

[7] = test system: S. cerevisiae AD-BEN^R (Ben^Rp); test: Checkerboard chemosensitisation to fluconazole; format: cell-based
Description: (§3) The assays were conducted, as described in Materials and methods for Example 4, in the presence of the indicated concentrations of fluconazole and KN20. D indicates cell death as measured by a failure to recover any colony forming units when samples from microtitre plate wells were cultured on solid YPD medium.
as §1

[8] = test system: S. cerevisiae AD-ERG11 (Erg11p); test: Checkerboard chemosensitisation to fluconazole; format: cell-based
Description: as §3, §1

T1 sequence (P33302 whole entry): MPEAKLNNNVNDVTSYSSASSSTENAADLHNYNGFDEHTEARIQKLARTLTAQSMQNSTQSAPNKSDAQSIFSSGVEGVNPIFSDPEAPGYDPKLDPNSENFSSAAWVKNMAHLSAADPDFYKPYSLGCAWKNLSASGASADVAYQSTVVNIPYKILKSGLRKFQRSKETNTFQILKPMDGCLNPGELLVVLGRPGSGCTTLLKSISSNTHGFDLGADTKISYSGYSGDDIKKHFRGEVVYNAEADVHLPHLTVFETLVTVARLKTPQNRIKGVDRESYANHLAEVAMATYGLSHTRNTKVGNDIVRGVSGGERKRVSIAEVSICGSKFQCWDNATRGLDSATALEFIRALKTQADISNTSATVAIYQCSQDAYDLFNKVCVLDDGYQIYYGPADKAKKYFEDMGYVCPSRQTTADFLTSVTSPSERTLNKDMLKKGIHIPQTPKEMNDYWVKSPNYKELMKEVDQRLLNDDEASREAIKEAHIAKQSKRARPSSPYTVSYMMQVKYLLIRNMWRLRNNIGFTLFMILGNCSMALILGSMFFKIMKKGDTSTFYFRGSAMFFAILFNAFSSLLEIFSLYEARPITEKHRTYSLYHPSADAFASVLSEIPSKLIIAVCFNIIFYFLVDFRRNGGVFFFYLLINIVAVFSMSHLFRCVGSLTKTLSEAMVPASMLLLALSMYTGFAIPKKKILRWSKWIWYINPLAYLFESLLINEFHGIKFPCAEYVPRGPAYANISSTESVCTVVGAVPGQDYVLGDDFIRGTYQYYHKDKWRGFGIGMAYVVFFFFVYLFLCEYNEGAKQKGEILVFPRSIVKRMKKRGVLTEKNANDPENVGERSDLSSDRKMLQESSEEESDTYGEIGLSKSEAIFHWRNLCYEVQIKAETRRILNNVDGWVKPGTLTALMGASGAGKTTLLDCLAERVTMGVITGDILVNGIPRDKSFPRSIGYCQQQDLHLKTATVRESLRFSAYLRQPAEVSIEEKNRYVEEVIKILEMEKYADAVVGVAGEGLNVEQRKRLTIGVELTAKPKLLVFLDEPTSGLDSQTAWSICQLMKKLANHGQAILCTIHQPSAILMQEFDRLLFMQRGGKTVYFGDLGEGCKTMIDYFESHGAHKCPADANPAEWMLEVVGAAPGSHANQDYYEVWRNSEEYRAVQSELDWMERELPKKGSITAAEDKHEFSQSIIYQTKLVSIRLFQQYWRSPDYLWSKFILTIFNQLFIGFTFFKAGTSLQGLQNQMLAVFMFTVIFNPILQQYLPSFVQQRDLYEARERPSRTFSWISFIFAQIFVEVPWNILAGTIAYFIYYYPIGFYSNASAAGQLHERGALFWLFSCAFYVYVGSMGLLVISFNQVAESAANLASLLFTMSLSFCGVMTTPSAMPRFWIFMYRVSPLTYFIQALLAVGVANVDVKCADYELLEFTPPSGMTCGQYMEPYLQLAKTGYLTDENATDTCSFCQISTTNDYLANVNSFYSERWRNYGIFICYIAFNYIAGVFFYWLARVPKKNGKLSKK

## OC(Cn1cncn1)(Cn1cncn1)c1ccc(F)cc1F [fluconazole]
Pdr5p ATPase; in vitro
  effect on oligomycin sensitive Pdr5p ATPase activity: does not affect
C. albicans FR2 (Ben^Rp); with KN20
  Chemosensitising concentration FCZ: 8 µg/mL
C. dubliniensis CD36
  Chemosensitising concentration FCZ: 0.31 µg/mL
C. glabrata CBS138
  Chemosensitising concentration FCZ: 20 µg/mL
C. krusei B2399
  Chemosensitising concentration FCZ: 80 µg/mL
C. tropicalis IFO0618
  Chemosensitising concentration FCZ: 10 µg/mL
[1]; with KN20
  Chemosensitising concentration FCZ: 40 µg/mL
[2]; with KN20
  Chemosensitising concentration FCZ: 20 µg/mL
[3]; with KN20
  Chemosensitising concentration FCZ: 1.25 µg/mL
[4]
  Chemosensitising concentration FCZ: 0.125 µg/mL
[5]
  Chemosensitising concentration FCZ: 60 µg/mL
C. albicans ATCC10261
  Chemosensitising concentration FCZ: 2 µg/mL
[6]; AD1002 (CaCdr1p), with KN20
  Chemosensitising concentration FCZ: 10 µg/mL
[7]; with KN20
  Chemosensitising concentration FCZ: 3.75 µg/mL
[8]
  Chemosensitising concentration FCZ: 0.25 µg/mL

## D-octapeptide NH2-Asn-Trp-Trp-Lys-Val-Arg-Arg-Arg-CONH2 with a single 4-methoxy-2,3,6-trimethylbenzenesulphonyl (Mtr) substituent on one tryptophan sidechain; Pdr5p inhibitor [KN20]
Pdr5p ATPase; plasma membranes from AD124567 overexpressing Pdr5p, pH 7.5, read-out: 150 for oligomycin sensitive ATPase activity
  IC50: ~3000 nM
C. albicans FR2 (Ben^Rp)
  Chemosensitising concentration KN20: 20 µM
  Fold-sensitisation by KN20 (For FCZ MIC): 4 fold
C. dubliniensis CD36; C. dubliniensis CD36
  Chemosensitising concentration KN20: 80 µM
C. dubliniensis CD36; C. dubliniensis CD36, resistant tail eliminated
  Fold-sensitisation by KN20 (For FCZ MIC): 64.5^a fold
C. glabrata CBS138; C. glabrata CBS138
  Chemosensitising concentration KN20: 40 µM
  Fold-sensitisation by KN20 (For FCZ MIC): 4 fold
C. krusei B2399; C. krusei B2399
  Chemosensitising concentration KN20: 80 µM
  Fold-sensitisation by KN20 (For FCZ MIC): 2.5 fold
C. tropicalis IFO0618; C. tropicalis IFO0618
  Chemosensitising concentration KN20: 10 µM
C. tropicalis IFO0618; C. tropicalis IFO0618, resistant tail eliminated
  Fold-sensitisation by KN20 (For FCZ MIC): 16^a fold
[1]
  Chemosensitising concentration KN20: 15 µM
  Fold-sensitisation by KN20 (For FCZ MIC): 8 fold
[2]
  Chemosensitising concentration KN20: 20 µM
  Fold-sensitisation by KN20 (For FCZ MIC): 4 fold
[3]
  Chemosensitising concentration KN20: 20 µM
  Fold-sensitisation by KN20 (For FCZ MIC): 16 fold
[4]; S. cerevisiae AD12345678u-
  Chemosensitising concentration KN20: 7.5 µM
  Fold-sensitisation by KN20 (For FCZ MIC): 2 fold
[5]; AD124567 (Pdr5p)
  Chemosensitising concentration KN20: 20 µM
  Fold-sensitisation by KN20 (For FCZ MIC): 10 fold
[5]; pH 7
  KN20 concentration that chemosensitised the Pdr5p overexpressing strain to fluconazole: 30 µM
C. albicans ATCC10261; C. albicans ATCC10261
  Chemosensitising concentration KN20: 80 µM
C. albicans ATCC10261; C. albicans ATCC10261, resistant tail eliminated
  Fold-sensitisation by KN20 (For FCZ MIC): 64^a fold
[6]; 10 μM KN20, without fluconazole, pH 7.0
  growth of AD1002 with KN20 alone: completely resistant
[6]; 10 μg/ml fluconazole plus 10 μM KN20
  growth of AD1002 with fluconazole plus KN20: completely abolished growth
[6]; 20 μM peptide alone, 48 h
  growth of AD1002 with KN20 alone: did not affect overall growth
[6]; AD1002 (CaCdr1p)
  Chemosensitising concentration KN20: 10 µM
  Fold-sensitisation by KN20 (For FCZ MIC): 4 fold
[7]
  Chemosensitising concentration KN20: 20 µM
  Fold-sensitisation by KN20 (For FCZ MIC): 16 fold
[8]; AD-ERG11 (Erg11p)
  Chemosensitising concentration KN20: 20 µM
  Fold-sensitisation by KN20 (For FCZ MIC): 8 fold

From patent US8728797B2, “Yeast membrane protein expression system and its application in drug screening” (priority 2001, dated 2014)
